{"source": "patent US20070259435A1", "about": "“Intravenous Drug Administration and Blood Sampling Model in the Awake Rat” (priority 2004, published 2007)", "key": {"in vivo [1]": {"experiment": "in vivo", "conditions": "male, Sprague-Dawley, rat, po, 5 mg/kg, single oral 5 mg/kg, multiple sampling", "excerpt": "(§1) Male SPF Sprague-Dawley rats (200-300 g, Charles River, Germany) were used throughout the study. Animals were allowed to acclimatize for one week prior to each part of the study. Tap water and food were available ad libitum.\nFor multiple blood sampling via the tail vein the animals were placed in a rodent cylindrical restrainer developed by the Scientific Instrument Division (Johnson & Johnson, Pharmaceutical Research and Development, division of Janssen Pharmaceutica). The rat's tail was warmed using an infra red lamp to facilitate the sampling. Venous blood was collected by a 27 G needle into Multivette 600KE tubes containing EDTA (Sarstedt, Germany).\n(§2) The plasma concentration profile and major PK parameters of different chemical structures were investigated following oral administration. Blood samples were taken from the tail vein with either the multiple or single sampling method.\n(§3) For both methods, the same formulation per compound was used to ensure any differences in results were not due to formulation effects. Test compounds JNJ1 (a farnesyl transferase compound), JNJ2 (galantamine hydrobromide) and JNJ3 (a CRF antagonist) were formulated in demineralized water or a 10% hydroxypropyl- -β cyclodextrin (HP- - ? CD) solution at final concentrations of between 0.25 and 1 mg/ml. All formulations were stored at room temperature, protected from light and analysed quantitatively. Animals were orally dosed by gastric intubation using a volume of 10 ml/kg.\n(§4) After dosing the compound, blood samples were taken at the desired time points. For the single sampling method, three animals per time point were sacrificed by decapitation and blood was collected by exsanguination into 10 ml B-D Sterile EDTA K3 Vacutainer tubes. For the multiple sampling technique 0.3 ml venous blood was repeatedly collected from the tail vein as described above. For each compound, 3 rats were used for a complete plasma concentration time profile. Plasma samples were analysed for the appropriate compound using individual qualified research LC-MS/MS methods as described in section 2.4.\nFor all compounds, individual calibration curves were constructed in blank EDTA rat plasma (covering the expected concentration range). Independent quality control samples (QC) were prepared in rat EDTA plasma at four concentration levels in duplicate, covering the entire calibration range. The study samples, calibration and QC samples were extracted using a generic sample preparation method. After sample preparation, the (reconstituted) residues were pipetted in polypropylene auto sampler vials and analysed using individual qualified research methods.\nAliquots of the residues were analysed using multiple reaction monitoring (MRM) liquid chromatography coupled to tandem mass spectrometry (LC-MS/MS) (API-3000 or 4000, Applied Biosystems, Canada). Chromatographic separation was obtained on commercial base deactivated C-18 columns of different brands, depending on the chromatographic behaviour of the compounds to be analysed. The mass spectrometers were operated in the TurbolonSpray TM mode (positive ion electrospray ionisation). For each compound the mass spectrometer was optimised to measure a selective parent-daughter transition. Integration of the chromatographic peaks was performed using the Analist software version 1.2 (Applied Biosystem, Canada). Final concentrations were calculated by interpolation from the calibration curves response, using a linear regression model. Both accuracy and precision were within expectations for all compounds, allowing accurate PK calculations\nA limited PK analysis was performed using WinNonlin™ Professional (Version 3.3). For the single sampling method, a non-compartmental data analysis was carried out on the mean plasma concentration profile (n=3/time point). For the multiple sampling method, a non-compartmental data analysis was carried out on the plasma concentration time profiles obtained from each animal (n=3). […]"}, "in vivo [2]": {"experiment": "in vivo", "conditions": "male, Sprague-Dawley, rat, single oral 5 mg/kg, Mean", "excerpt": "as §1, §2, §3\nas §4, with “For each compound, 3 rats were used for a complete plasma concentration time profile.” left out\nFor all compounds, individual calibration curves were constructed in blank EDTA rat plasma (covering the expected concentration range). […] After sample preparation, the (reconstituted) residues were pipetted in polypropylene auto sampler vials and analysed using individual qualified research methods.\nAliquots of the residues were analysed using multiple reaction monitoring (MRM) liquid chromatography coupled to tandem mass spectrometry (LC-MS/MS) (API-3000 or 4000, Applied Biosystems, Canada). Chromatographic separation was obtained on commercial base deactivated C-18 columns of different brands, depending on the chromatographic behaviour of the compounds to be analysed. […] Final concentrations were calculated by interpolation from the calibration curves response, using a linear regression model. […]\nA limited PK analysis was performed using WinNonlin™ Professional (Version 3.3). […] Average values were then calculated to compare the multiple and the single sampling method. The PK parameters calculated were observed maximum plasma concentration (Cmax), the time to reach the maximum plasma concentration (Tmax), plasma half-life (t1/2) and exposure of the compound calculated by the area under the curve (AUClast and AUCinf). […]"}}, "note": "Where a name gives a salt, the structure may show the parent alone. Read-outs that look alike come from different tables or passages of the source.", "data": [{"smiles": "COc1ccc2c3c1O[C@H]1C[C@@H](O)C=C[C@@]31CCN(C)C2", "note": "[JNJ2, galantamine hydrobromide]", "values": [{"measurement": "AUC(0-inf)", "setting": "in vivo [1]; Mean, read-out: AUCinf (extrapolated exposure)", "result": 1180, "unit": "ng·h/mL"}, {"measurement": "AUC(0-t)", "setting": "in vivo [1]; Mean, read-out: AUClast (observed exposure)", "result": 1100, "unit": "ng·h/mL"}, {"measurement": "Cmax", "setting": "in vivo [1]; Mean, read-out: Cmax (maximum plasma concentration)", "result": 113, "unit": "ng/mL"}, {"measurement": "half-life", "setting": "in vivo [1]; Mean, read-out: t1/2 (half life) (converted)", "result": 5.75, "unit": "h"}, {"measurement": "AUC(0-inf)", "setting": "in vivo [1]; Rat 1, read-out: AUCinf (extrapolated exposure)", "result": 1440, "unit": "ng·h/mL"}, {"measurement": "AUC(0-t)", "setting": "in vivo [1]; Rat 1, read-out: AUClast (observed exposure)", "result": 1310, "unit": "ng·h/mL"}, {"measurement": "Cmax", "setting": "in vivo [1]; Rat 1, read-out: Cmax (maximum plasma concentration)", "result": 135, "unit": "ng/mL"}, {"measurement": "half-life", "setting": "in vivo [1]; Rat 1, read-out: t1/2 (half life) (converted)", "result": 6.81, "unit": "h"}, {"measurement": "AUC(0-inf)", "setting": "in vivo [1]; Rat 2, read-out: AUCinf (extrapolated exposure)", "result": 1180, "unit": "ng·h/mL"}, {"measurement": "AUC(0-t)", "setting": "in vivo [1]; Rat 2, read-out: AUClast (observed exposure)", "result": 1120, "unit": "ng·h/mL"}, {"measurement": "Cmax", "setting": "in vivo [1]; Rat 2, read-out: Cmax (maximum plasma concentration)", "result": 96.3, "unit": "ng/mL"}, {"measurement": "half-life", "setting": "in vivo [1]; Rat 2, read-out: t1/2 (half life) (converted)", "result": 4.89, "unit": "h"}, {"measurement": "AUC(0-inf)", "setting": "in vivo [1]; Rat 3, read-out: AUCinf (extrapolated exposure)", "result": 913, "unit": "ng·h/mL"}, {"measurement": "AUC(0-t)", "setting": "in vivo [1]; Rat 3, read-out: AUClast (observed exposure)", "result": 866, "unit": "ng·h/mL"}, {"measurement": "Cmax", "setting": "in vivo [1]; Rat 3, read-out: Cmax (maximum plasma concentration)", "result": 108, "unit": "ng/mL"}, {"measurement": "half-life", "setting": "in vivo [1]; Rat 3, read-out: t1/2 (half life) (converted)", "result": 5.65, "unit": "h"}, {"measurement": "AUC(0-inf)", "setting": "in vivo [2]; read-out: AUCinf (extrapolated exposure)", "result": 1440, "unit": "ng·h/mL"}, {"measurement": "AUC(0-t)", "setting": "in vivo [2]; read-out: AUClast (observed exposure)", "result": 1380, "unit": "ng·h/mL"}, {"measurement": "Cmax", "setting": "in vivo [2]; read-out: Cmax (maximum plasma concentration)", "result": 155, "unit": "ng/mL"}, {"measurement": "half-life", "setting": "in vivo [2]; read-out: t1/2 (half life) (converted)", "result": 4.93, "unit": "h"}]}]}
